Experimental data as given in ChEMBL document CHEMBL2440076, “New triarylpyrazoles as broad-spectrum anticancer agents: design, synthesis, and biological evaluation” (Eur J Med Chem, 2013).

What was measured:
Type in all cases: functional
[1] = tested on: Malme-3M; assay: Growth inhibition of human MALME-3M cells assessed as cell growth at 5X10'-5 M after 48 hrs by sulforhodamine B assay; conditions: read-out: Activity
[2] = tested on: SNB-19; assay: Growth inhibition of human SNB19 cells assessed as cell growth at 5X10'-5 M after 48 hrs by sulforhodamine B assay; conditions: SNB-19, 48 h, read-out: Activity
[3] = tested on: SF-539; assay: Growth inhibition of human SF539 cells assessed as cell growth at 5X10'-5 M after 48 hrs by sulforhodamine B assay; conditions: SF-539, 48 h, read-out: Activity
[4] = tested on: SF-295; assay: Growth inhibition of human SF295 cells assessed as cell growth at 5X10'-5 M after 48 hrs by sulforhodamine B assay; conditions: SF-295, 48 h, read-out: Activity
[5] = tested on: HCT-15; assay: Growth inhibition of human HCT15 cells assessed as cell growth at 5X10'-5 M after 48 hrs by sulforhodamine B assay; conditions: HCT-15, 48 h, read-out: Activity
[6] = tested on: COLO 205; assay: Growth inhibition of human COLO205 cells assessed as cell growth at 5X10'-5 M after 48 hrs by sulforhodamine B assay; conditions: COLO 205, 48 h, read-out: Activity
[7] = tested on: RPMI-8226; assay: Growth inhibition of human RPMI8226 cells assessed as cell growth at 5X10'-5 M after 48 hrs by sulforhodamine B assay; conditions: RPMI-8226, 48 h, read-out: Activity
[8] = tested on: K562; assay: Growth inhibition of human K562 cells assessed as cell growth at 5X10'-5 M after 48 hrs by sulforhodamine B assay; conditions: K562, 48 h, read-out: Activity
[9] = tested on: CAKI-1; assay: Growth inhibition of human CAKI-1 cells assessed as cell growth at 5X10'-6 M after 48 hrs by sulforhodamine B assay; conditions: CAKI-1, 48 h, read-out: Activity
[10] = tested on: COLO 205; assay: Growth inhibition of human COLO205 cells assessed as cell growth at 5X10'-9 M after 48 hrs by sulforhodamine B assay; conditions: COLO 205, 48 h, read-out: Activity
[11] = tested on: RPMI-8226; assay: Growth inhibition of human RPMI8226 cells assessed as cell growth at 5X10'-9 M after 48 hrs by sulforhodamine B assay; conditions: RPMI-8226, 48 h, read-out: Activity
[12] = tested on: HT-29; assay: Growth inhibition of human HT-29 cells assessed as cell growth at 5X10'-6 M after 48 hrs by sulforhodamine B assay; conditions: HT-29, 48 h, read-out: Activity
[13] = tested on: RPMI-8226; assay: Growth inhibition of human RPMI8226 cells assessed as cell growth at 5X10'-6 M after 48 hrs by sulforhodamine B assay; conditions: RPMI-8226, 48 h, read-out: Activity
[14] = tested on: CAKI-1; assay: Growth inhibition of human CAKI-1 cells assessed as cell growth at 5X10'-7 M after 48 hrs by sulforhodamine B assay; conditions: CAKI-1, 48 h, read-out: Activity
[15] = tested on: MDA-MB-435; assay: Growth inhibition of human MDA-MB-435 cells assessed as cell growth at 5X10'-7 M after 48 hrs by sulforhodamine B assay; conditions: MDA-MB-435, 48 h, read-out: Activity
[16] = tested on: KM12; assay: Growth inhibition of human KM12 cells assessed as cell growth at 5X10'-7 M after 48 hrs by sulforhodamine B assay; conditions: KM12, 48 h, read-out: Activity
[17] = tested on: HCT-15; assay: Growth inhibition of human HCT15 cells assessed as cell growth at 5X10'-7 M after 48 hrs by sulforhodamine B assay; conditions: HCT-15, 48 h, read-out: Activity
[18] = tested on: COLO 205; assay: Growth inhibition of human COLO205 cells assessed as cell growth at 5X10'-7 M after 48 hrs by sulforhodamine B assay; conditions: COLO 205, 48 h, read-out: Activity
[19] = tested on: NCI-H226; assay: Growth inhibition of human NCI-H226 cells assessed as cell growth at 5X10'-7 M after 48 hrs by sulforhodamine B assay; conditions: NCI-H226, 48 h, read-out: Activity
[20] = tested on: RPMI-8226; assay: Growth inhibition of human RPMI8226 cells assessed as cell growth at 5X10'-7 M after 48 hrs by sulforhodamine B assay; conditions: RPMI-8226, 48 h, read-out: Activity
[21] = tested on: K562; assay: Growth inhibition of human K562 cells assessed as cell growth at 5X10'-7 M after 48 hrs by sulforhodamine B assay; conditions: K562, 48 h, read-out: Activity
[22] = tested on: OVCAR-3; assay: Growth inhibition of human OVCAR3 cells assessed as cell growth at 5X10'-8 M after 48 hrs by sulforhodamine B assay; conditions: OVCAR-3, 48 h, read-out: Activity
[23] = tested on: IGROV-1; assay: Growth inhibition of human IGROV1 cells assessed as cell growth at 5X10'-8 M after 48 hrs by sulforhodamine B assay; conditions: IGROV-1, 48 h, read-out: Activity
[24] = tested on: UACC-257; assay: Growth inhibition of human UACC257 cells assessed as cell growth at 5X10'-8 M after 48 hrs by sulforhodamine B assay; conditions: UACC-257, 48 h, read-out: Activity
[25] = tested on: SNB-19; assay: Growth inhibition of human SNB19 cells assessed as cell growth at 5X10'-8 M after 48 hrs by sulforhodamine B assay; conditions: SNB-19, 48 h, read-out: Activity
[26] = tested on: SF-539; assay: Growth inhibition of human SF539 cells assessed as cell growth at 5X10'-8 M after 48 hrs by sulforhodamine B assay; conditions: SF-539, 48 h, read-out: Activity
[27] = tested on: SW-620; assay: Growth inhibition of human SW620 cells assessed as cell growth at 5X10'-8 M after 48 hrs by sulforhodamine B assay; conditions: SW-620, 48 h, read-out: Activity
[28] = tested on: MCF7; assay: Growth inhibition of human MCF7 cells assessed as cell growth at 5X10'-5 M after 48 hrs by sulforhodamine B assay; conditions: MCF7, 48 h, read-out: Activity
[29] = tested on: RXF 393; assay: Growth inhibition of human RXF393 cells assessed as cell growth at 5X10'-5 M after 48 hrs by sulforhodamine B assay; conditions: RXF 393, 48 h, read-out: Activity
[30] = tested on: UACC-257; assay: Growth inhibition of human UACC257 cells assessed as cell growth at 5X10'-5 M after 48 hrs by sulforhodamine B assay; conditions: UACC-257, 48 h, read-out: Activity
[31] = tested on: COLO 205; assay: Growth inhibition of human COLO205 cells assessed as cell growth at 5X10'-8 M after 48 hrs by sulforhodamine B assay; conditions: COLO 205, 48 h, read-out: Activity
[32] = tested on: MOLT-4; assay: Growth inhibition of human MOLT4 cells assessed as cell growth at 5X10'-8 M after 48 hrs by sulforhodamine B assay; conditions: MOLT-4, 48 h, read-out: Activity
[33] = tested on: K562; assay: Growth inhibition of human K562 cells assessed as cell growth at 5X10'-8 M after 48 hrs by sulforhodamine B assay; conditions: K562, 48 h, read-out: Activity
[34] = tested on: CCRF-CEM; assay: Growth inhibition of human CCRF-CEM cells assessed as cell growth at 5X10'-8 M after 48 hrs by sulforhodamine B assay; conditions: read-out: Activity
[35] = tested on: SK-OV-3; assay: Growth inhibition of human SKOV3 cells assessed as cell growth at 5X10'-9 M after 48 hrs by sulforhodamine B assay; conditions: SK-OV-3, 48 h, read-out: Activity
[36] = tested on: 786-0; assay: Growth inhibition of human 786-0 cells assessed as cell growth at 5X10'-9 M after 48 hrs by sulforhodamine B assay; conditions: 786-0, 48 h, read-out: Activity
[37] = tested on: IGROV-1; assay: Growth inhibition of human IGROV1 cells assessed as cell growth at 5X10'-9 M after 48 hrs by sulforhodamine B assay; conditions: IGROV-1, 48 h, read-out: Activity
[38] = tested on: Malme-3M; assay: Growth inhibition of human MALME-3M cells assessed as cell growth at 5X10'-9 M after 48 hrs by sulforhodamine B assay; conditions: read-out: Activity

Row | Compound | growth at 50 µM [1] | growth at 50 µM [2] | growth at 50 µM [3] | growth at 50 µM [4] | growth at 50 µM [5] | growth at 50 µM [6] | growth at 50 µM [7] | growth at 50 µM [8] | growth at 5 µM [9] | growth at 0.005 µM [10] | growth at 0.005 µM [11] | growth at 5 µM [12] | growth at 5 µM [13] | growth at 0.5 µM [14] | growth at 0.5 µM [15] | growth at 0.5 µM [16] | growth at 0.5 µM [17] | growth at 0.5 µM [18] | growth at 0.5 µM [19] | growth at 0.5 µM [20] | other results
1 | COc1cc(-c2nn(-c3cccc(NC(=O)Nc4cccc(C(F)(F)F)c4)c3)cc2-c2ccncc2)ccc1Cl | -51% | -18% | -58% | -77% | -29% | -89% | -8% | 1% | -14% | 98% | 98% | -54% | -10% | 79% | 80% | 55% | 66% | 93% | 84% | 40% | growth at 0.5 µM [21]: 53%; growth at 0.05 µM [22]: 102%; growth at 0.05 µM [23]: 96%; growth at 0.05 µM [24]: 98%; growth at 0.05 µM [25]: 97%; growth at 0.05 µM [26]: 94%; growth at 0.05 µM [27]: 94%; growth at 50 µM [28]: -8%; growth at 50 µM [29]: -53%; growth at 50 µM [30]: -87%; growth at 0.05 µM [31]: 98%; growth at 0.05 µM [32]: 92%; growth at 0.05 µM [33]: 95%; growth at 0.05 µM [34]: 102%; growth at 0.005 µM [35]: 100%; growth at 0.005 µM [36]: 95%; growth at 0.005 µM [37]: 100%; growth at 0.005 µM [38]: 86%
2 | COc1cc(-c2nn(-c3cccc(NC(=O)Nc4cc(C(F)(F)F)cc(C(F)(F)F)c4)c3)cc2-c2ccncc2)ccc1Cl | -63% | -40% | -78% | -73% | -75% | -95% | 3% | -16% | -20% | 107% | 99% | -68% | 3% | 80% | 85% | 53% | 61% | 93% | 83% | 38% | growth at 0.5 µM [21]: 42%; growth at 0.05 µM [22]: 109%; growth at 0.05 µM [23]: 105%; growth at 0.05 µM [24]: 98%; growth at 0.05 µM [25]: 91%; growth at 0.05 µM [26]: 90%; growth at 0.05 µM [27]: 95%; growth at 50 µM [28]: -5%; growth at 50 µM [29]: -65%; growth at 50 µM [30]: -54%; growth at 0.05 µM [31]: 102%; growth at 0.05 µM [32]: 105%; growth at 0.05 µM [33]: 99%; growth at 0.05 µM [34]: 94%; growth at 0.005 µM [35]: 102%; growth at 0.005 µM [36]: 100%; growth at 0.005 µM [37]: 109%; growth at 0.005 µM [38]: 90%
